In patent publication US10457703B2, “Bile acid derivatives as FXR/TGR5 agonists and methods of use thereof” (ENANTA PHARMACEUTICALS, INC., priority 2015, dated 2019):

Target: human FXR (NR1H4) (Homo sapiens (Human), UniProt Q96RI1)
Assay: Human FXR (NR1H4) Assay (Gal4 promoter driven luciferase reporter, Indigo Bioscience kit);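 on Efficacy (%): 100% equals the efficacy of CDCA; efficacy normalized to CDCA set as 100%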
Format: cell-based
Conditions: for EC50: Human FXR (NR1H4) Assay, potency ranges; for Emax: read-out: Efficacy (%)
How it was run: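 CHO reporter cells expressing human FXR with an FXR-responsive luciferase reporter, treated with compound doses at 0.2% DMSO. Incubation lasted 22 h at 37 °C before luciferase detection reagent was added. Luminescence was then read.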

Sequence of human FXR (NR1H4) (Q96RI1 whole entry, the tested form may be a part): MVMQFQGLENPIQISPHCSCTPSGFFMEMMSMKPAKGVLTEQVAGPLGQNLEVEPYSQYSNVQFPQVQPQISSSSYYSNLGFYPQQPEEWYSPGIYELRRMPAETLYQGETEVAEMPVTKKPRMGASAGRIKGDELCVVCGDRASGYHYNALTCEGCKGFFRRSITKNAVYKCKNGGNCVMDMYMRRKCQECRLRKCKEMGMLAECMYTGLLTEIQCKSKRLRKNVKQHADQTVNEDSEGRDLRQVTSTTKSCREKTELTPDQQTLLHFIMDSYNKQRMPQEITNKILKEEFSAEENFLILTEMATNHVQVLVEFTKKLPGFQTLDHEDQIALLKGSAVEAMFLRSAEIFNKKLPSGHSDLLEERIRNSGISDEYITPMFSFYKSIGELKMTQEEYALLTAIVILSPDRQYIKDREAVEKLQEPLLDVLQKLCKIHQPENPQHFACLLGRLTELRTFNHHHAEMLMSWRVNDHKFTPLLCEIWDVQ

SMILES | EC50 [nM] | Emax [%]
CC[C@H]1[C@@H](O)[C@@H]2[C@H](CC[C@]3(C)[C@@H]([C@H](C)CCOC(=O)NS(=O)(=O)C(C)(C)C)CC[C@@H]23)[C@@]2(C)CC[C@@H](O)C[C@@H]12 [Example 48] | < 100 | 282
CC[C@H]1[C@@H](O)[C@@H]2[C@H](CC[C@]3(C)[C@@H]([C@H](C)COC(=O)N4CCCCC4)CC[C@@H]23)[C@@]2(C)CC[C@@H](O)C[C@@H]12 [Example 201] | 100 to 1000 | 1
CC[C@H]1[C@@H](O)[C@@H]2[C@H](CC[C@]3(C)[C@@H]([C@H](C)COC(=O)NS(=O)(=O)c4ccc(N5CCCCC5)nc4)CC[C@@H]23)[C@@]2(C)CC[C@@H](O)C[C@@H]12 [Example 14] | < 100 | 270
CC[C@H]1[C@@H](O)[C@@H]2[C@H](CC[C@]3(C)[C@@H]([C@H](C)CCOC(=O)NC(C(C)C)C(C)C)CC[C@@H]23)[C@@]2(C)CC[C@@H](O)C[C@@H]12 [Example 176] | 1000 to 10000 | 368
CC[C@H]1[C@@H](O)[C@@H]2[C@H](CC[C@]3(C)[C@@H]([C@H](C)CCOC(=O)N4CCC(CO)(CO)CC4)CC[C@@H]23)[C@@]2(C)CC[C@@H](O)C[C@@H]12 [Example 218] | < 100 | 356
CC[C@H]1[C@@H](O)[C@@H]2[C@H](CC[C@]3(C)[C@@H]([C@H](C)COC(=O)NS(=O)(=O)c4ccc(-n5cncn5)nc4)CC[C@@H]23)[C@@]2(C)CC[C@@H](O)C[C@@H]12 [Example 44-l] | 100 to 1000 | 165
CC[C@H]1[C@@H](O)[C@@H]2[C@H](CC[C@]3(C)[C@@H]([C@H](C)COC(=O)NS(=O)(=O)c4ccc(N5C6CCC5CC6)cc4)CC[C@@H]23)[C@@]2(C)CC[C@@H](O)C[C@@H]12 [Example 44-a] | < 100 | 182
CC[C@H]1[C@@H](O)[C@@H]2[C@H](CC[C@]3(C)[C@@H]([C@H](C)CCOC(=O)N4CCC[C@@H]4CO)CC[C@@H]23)[C@@]2(C)CC[C@@H](O)C[C@@H]12 [Example 209] | < 100 | 199
CC[C@H]1[C@@H](O)[C@@H]2[C@H](CC[C@]3(C)[C@@H]([C@H](C)CCOC(=O)NCCCC(=O)OC)CC[C@@H]23)[C@@]2(C)CC[C@@H](O)C[C@@H]12 [Example 187] | 100 to 1000 | 421
CC[C@H]1[C@@H](O)[C@@H]2[C@H](CC[C@]3(C)[C@@H]([C@H](C)CCOC(=O)N4CCCCS4(=O)=O)CC[C@@H]23)[C@@]2(C)CC[C@@H](O)C[C@@H]12 [Example 104-e] | 100 to 1000 | 239
CC[C@H]1[C@@H](O)[C@@H]2[C@H](CC[C@]3(C)[C@@H]([C@H](C)COC(=O)NS(=O)(=O)c4ccc(N5CCC5)nc4)CC[C@@H]23)[C@@]2(C)CC[C@@H](O)C[C@@H]12 [Example 44-c] | < 100 | 183
CC[C@H]1[C@@H](O)[C@@H]2[C@H](CC[C@]3(C)[C@@H]([C@H](C)CCOC(=O)NS(=O)(=O)c4ncccn4)CC[C@@H]23)[C@@]2(C)CC[C@@H](O)C[C@@H]12 [Example 104-d] | 1000 to 10000 | 35
CC[C@H]1[C@@H](O)[C@@H]2[C@H](CC[C@]3(C)[C@@H]([C@H](C)CCOC(=O)NS(=O)(=O)c4cccnc4)CC[C@@H]23)[C@@]2(C)CC[C@@H](O)C[C@@H]12 [Example 95] | 1000 to 10000 | 420
CC[C@H]1[C@@H](O)[C@@H]2[C@H](CC[C@]3(C)[C@@H]([C@H](C)CCOC(=O)N4CCc5sccc5C4)CC[C@@H]23)[C@@]2(C)CC[C@@H](O)C[C@@H]12 [Example 173] | 100 to 1000 | 209
CC[C@H]1[C@@H](O)[C@@H]2[C@H](CC[C@]3(C)[C@@H]([C@H](C)CCOC(=O)NS(=O)(=O)c4ccc5ccccc5c4)CC[C@@H]23)[C@@]2(C)CC[C@@H](O)C[C@@H]12 [Example 88] | < 100 | 236
CC[C@H]1[C@@H](O)[C@@H]2[C@H](CC[C@]3(C)[C@@H]([C@H](C)CCOC(=O)N(C)OC)CC[C@@H]23)[C@@]2(C)CC[C@@H](O)C[C@@H]12 [Example 164] | 100 to 1000 | 191
CC[C@H]1[C@@H](O)[C@@H]2[C@H](CC[C@]3(C)[C@@H]([C@H](C)COC(=O)NS(=O)(=O)c4ccc(OC(F)(F)F)cc4)CC[C@@H]23)[C@@]2(C)CC[C@@H](O)C[C@@H]12 [Example 6] | 100 to 1000 | 298
